Results as given in patent publication US12492173B2, “Herbicidal substituted N-tetrazolyl aryl carboxamides” (Bayer Aktiengesellschaft, priority 2019, dated 2025).

Tested on: Cyperus esculentus
Experiment: Pre-emergence herbicidal action, CYPES
Assay type: in vivo
Design: key: % activity: 100 = plants have died, 0 = like control plants
Conditions: comparative experiment, 20 g of a.i./ha
How it was run: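 Weed seeds sown in sandy loam and covered; WP or EC formulations applied to soil surface as aqueous suspension or emulsion at 600 to 800 l/ha with 0.2% wetting agent. Greenhouse-grown, with damage scored visually after 3 weeks versus untreated controls (0% = like control, 100% = plants dead).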

Compound	Herbicidal action against CYPES
CSCc1c(C(F)F)ccc(C(=O)Nc2nnnn2C)c1Cl [Example 1-320]	80

Same assay, conditions: comparative experiment, 80 g of a.i./ha

Compound	Herbicidal action against CYPES
CCSCc1c(C(F)(F)F)ccc(C(=O)Nc2nnnn2C)c1Br [Example 1-383]	100

Tested on: Hordeum murinum
Experiment: Post-emergence herbicidal action, HORMU
Assay type: in vivo
Design: key: % herbicidal action: 100 = plants died, 0 = like control
Conditions: Dosage 80 g/ha
Method: (§1) [table] 2. Post-Emergence Herbicidal Action Against Harmful Plants Seeds of monocotyledonous and dicotyledonous weed and crop plants are laid out in sandy loam soil in wood-fiber pots, covered with soil and cultivated in a greenhouse under good growth conditions. 2 to 3 weeks after sowing, the test plants are treated at the one-leaf stage. The compounds of the invention, formulated in the form of wettable powders (WP) or as emulsion concentrates (EC), are then sprayed onto the green parts of the plants in the form of an aqueous suspension or emulsion at a water application rate equating to 600 to 800 l/ha, with addition of 0.2% wetting agent. After the test plants have been left to stand in the greenhouse under optimal growth conditions for about 3 weeks, the action of the preparations is assessed visually in comparison to untreated controls (herbicidal action in percent (%): 100% activity=the plants have died, 0% activity=like control plants). […] The tables below illustrate, in an exemplary manner, the post-emergence herbicidal action of the compounds according to the invention, the herbicidal activity being stated in percent. In the experiments that follow, herbicidal action of numerous inventive compounds and the known compounds that are structurally closest from D1 (WO 2012/028579 A1) and D2 (WO 2018/202535 A1) were compared under the above-specified conditions by the pre-emergence and post-emergence method. The example numbers given in the tables relate to the compounds disclosed in the respective documents. In addition to the compounds disclosed in D1 and D2, the following compounds V-1 to V-14 that are encompassed by D1 or D2 but are not compounds specified therein were used in the comparative experiments: • V-1: 2-(methylsulfanyl)-3-(methylsulfinyl)-N-(1-methyl-1H-tetrazol-5-yl)-4-(trifluoromethyl)benzamide • V-2: 2-(methylsulfanyl)-3-(methylsulfonyl)-N-(1-methyl-1H-tetrazol-5-yl)-4-(trifluoromethyl)benzamide • V-3: 2,3-bis(ethylsulfanyl)-N-(1-methyl-1H-tetrazol-5-yl)-4-(trifluoromethyl)benzamide • V-4: 2-chloro-3-(ethylsulfanyl)-N-(1-methyl-1H-tetrazol-5-yl)-4-(trifluoromethyl)benzamide • V-5: 2-chloro-4-iodo-3-(methylsulfanyl)-N-(1-methyl-1H-tetrazol-5-yl)benzamide • V-6: 2-chloro-4-iodo-3-(methylsulfinyl)-N-(1-methyl-1H-tetrazol-5-yl)benzamide • V-7: 2-chloro-4-iodo-3-(methylsulfonyl)-N-(1-methyl-1H-tetrazol-5-yl)benzamide • V-8: 2-bromo-3-(methylsulfanyl)-N-(1-methyl-1H-tetrazol-5-yl)-4-(trifluoromethyl)benzamide • V-9: 2-bromo-3-(methylsulfinyl)-N-(1-methyl-1H-tetrazol-5-yl)-4-(trifluoromethyl)benzamide • V-10: 2-bromo-3-(methylsulfonyl)-N-(1-methyl-1H-tetrazol-5-yl)-4-(trifluoromethyl)benzamide • V-11: 2-bromo-3-(ethylsulfanyl)-N-(1-methyl-1H-tetrazol-5-yl)-4-(trifluoromethyl)benzamide • V-12: 2-bromo-3-(ethylsulfinyl)-N-(1-methyl-1H-tetrazol-5-yl)-4-(trifluoromethyl)benzamide • V-13: 2-bromo-3-(ethylsulfonyl)-N-(1-methyl-1-1H-tetrazol-5-yl)-4-(trifluoromethyl)benzamide • V-14: 2-cyclopropyl-3-(ethylsulfanyl)-N-(1-methyl-1H-tetrazol-5-yl)-4-(trifluoromethyl)benzamide Herbicidal Pre-Emergence Action: […]

Compound	herbicidal action HORMU
Cn1nnnc1NC(=O)c1ccc(C(F)(F)F)c(CSCC(F)(F)F)c1Cl [Example 1-311]	100
CCn1nnnc1NC(=O)c1ccc(C(F)(F)F)c(CSCC(F)(F)F)c1Cl [Example 2-311]	80
CCn1nnnc1NC(=O)c1ccc(I)c(C[S+](C)[O-])c1Cl (stereo not drawn) [Example 2-363]	90
CCCn1nnnc1NC(=O)c1ccc(C(F)(F)F)c(CSCC(F)(F)F)c1Cl [Example 3-311]	90
CCCn1nnnc1NC(=O)c1ccc(C(F)F)c(CS(=O)(=O)CC)c1Cl [Example 3-325]	90
CCCn1nnnc1NC(=O)c1ccc(C(F)(F)F)c(CS(C)(=O)=O)c1SC [Example 3-163]	80

Same assay, conditions: post-emergence, dosage 80 g/ha

Compound	herbicidal action HORMU [%]
CCCn1nnnc1NC(=O)c1ccc(C(F)(F)F)c(CSCC2CC2)c1Cl [Example 3-314]	90

Tested on: Lolium multiflorum
Experiment: Post-emergence herbicidal action, LOLMU
Assay type: in vivo
Design: key: % herbicidal action: 100 = plants died, 0 = like control
Conditions: Dosage 80 g/ha
Method: as §1

Compound	herbicidal action LOLMU
CCn1nnnc1NC(=O)c1ccc(C(F)F)c(CSC)c1Cl [Example 2-320]	80
CSCc1c(C(F)F)ccc(C(=O)Nc2nnnn2C)c1Cl [Example 1-320]	80
CCS(=O)(=O)Cc1c(C(F)F)ccc(C(=O)Nc2nnnn2C)c1Cl [Example 1-325]	90

Same assay, conditions: post-emergence, dosage 80 g/ha

Compound	herbicidal action LOLMU [%]
CCSCc1c(C(F)F)ccc(C(=O)Nc2nnnn2C)c1Cl [Example 1-323]	90
CCSCc1c(C(F)F)ccc(C(=O)Nc2nnnn2CC)c1Cl [Example 2-323]	80
CCSCc1c(C(F)(F)F)ccc(C(=O)Nc2nnnn2CC)c1C [Example 2-86]	90
CSCc1c(C(F)(F)F)ccc(C(=O)Nc2nnnn2C)c1C [Example 1-83]	80
Cn1nnnc1NC(=O)c1ccc(C(F)F)c(CS(C)(=O)=O)c1Cl [Example 1-322]	90
CCn1nnnc1NC(=O)c1ccc(C(F)(F)F)c(C[S+]([O-])CC)c1Br (stereo not drawn) [Example 2-384]	80
CCn1nnnc1NC(=O)c1ccc(C(F)(F)F)c(C[S+](C)[O-])c1Cl (stereo not drawn) [Example 2-297]	90
CSCc1c(Cl)ccc(C(=O)Nc2nnnn2C)c1Cl [Example 1-559]	100
CCn1nnnc1NC(=O)c1ccc(C(F)F)c(CS(C)(=O)=O)c1Cl [Example 2-322]	80
CCn1nnnc1NC(=O)c1ccc(C(F)(F)F)c(CSC)c1Cl [Example 2-296]	90
CCSCc1c(C(F)(F)F)ccc(C(=O)Nc2nnnn2C)c1Br [Example 1-383]	90
CCSCc1c(C(F)(F)F)ccc(C(=O)Nc2nnnn2CC)c1Cl [Example 2-299]	90
